{"source": "BigSolDB 2.1", "data": [{"smiles": "Cc1cnc(NC(=O)C2=C(O)c3ccccc3S(=O)(=O)N2C)s1", "values": [{"measurement": "solubility (mole fraction)", "setting": "in transcutol, 293.15 K", "value": 0.0012}, {"measurement": "solubility (mole fraction)", "setting": "in transcutol, 298.15 K", "value": 0.0013}, {"measurement": "solubility (mole fraction)", "setting": "in transcutol, 303.15 K", "value": 0.0014}, {"measurement": "solubility (mole fraction)", "setting": "in transcutol, 308.15 K", "value": 0.00151}, {"measurement": "solubility (mole fraction)", "setting": "in transcutol, 313.15 K", "value": 0.00165}, {"measurement": "solubility (mole fraction)", "setting": "in water, 293.15 K", "value": "1.09e-06"}, {"measurement": "solubility (mole fraction)", "setting": "in water, 298.15 K", "value": "1.14e-06"}, {"measurement": "solubility (mole fraction)", "setting": "in water, 303.15 K", "value": "1.19e-06"}, {"measurement": "solubility (mole fraction)", "setting": "in water, 308.15 K", "value": "1.26e-06"}, {"measurement": "solubility (mole fraction)", "setting": "in water, 313.15 K", "value": "1.33e-06"}]}]}
